According to US5268308A, “Immunoassay for pyridostigmine” (priority 1989, dated 1993):

Target: Pyridostigmine Antibody
Test: Cross-reactivity with pyridostigmine antibody in RIA (competition with labeled pyridostigmine)
Format: binding, rabbit (male New Zealand white)
Conditions: labeled pyridostigmine 5000 DPM; maximum tested 500 ng
Description: Antibodies to the pyridostigmine-BSA immunogen were produced by injecting male New Zealand white rabbits. Prior to injection, the immunogen was emulsified with an equal volume of complete Freund's adjuvant, purchased from Difco Laboratories. The initial immunization consisted of 0.8 mg of protein injected intracutaneously into the back of the rabbits. Booster injections containing 0.8 mg of immunogen and incomplete Freund's adjuvant were administered every one or two months for the next seven months. Blood was collected one week after each booster injection from the central ear vein. The blood was allowed to clot at room temperature and then centrifuged at 1500×g for 15 minutes. The separated serum was stored frozen at -20° C. until assayed for the presence of pyridostigmine antibody. […] FIG. 1 is the antibody dilution curve for pyridostigmine.
In the assay procedure tritiated pyridostigmine having specificity of […] was used as tracer. The dilution of tracer, antisera and pyridostigmine standards were made using 0.01 M phosphate buffer containing 150 mM sodium chloride with a pH of 7.4.. […] Both standard and sample tubes were always analyzed in duplicate. The assay was carried out according to the protocol shown in. Table 1 with the reagents were added to the assay tubes in the order shown in.
According to the protocol for the RIA of the present invention, after the addition of antisera, the contents of the tubes were mixed and incubated for 3 hours at 4° C. The antigen which bound to the antibody was separated by adding 100% saturated ammonium sulfate and centrifuging at 2500×g for 15 minutes. After aspiration of the supernatant, the precipitate was washed one time with 50% saturated ammonium sulfate; then the mixture was centrifuged and the supernatent removed. The precipitate was dissolved in 1.0 ml of distilled water, and the solution was transferred to a scintillation vial containing 10.0 ml of acquasol.
Cross-reactivity of various compounds with pyridostigmine antibody was determined in the RIA. […] Each compound was tested for cross-reactivity with the antibody. The maximum concentration of each compound tested was 500 ng.

## CN(C)C(=O)Oc1cccc([N+](C)(C)C)c1 [Neostigmine]
  IC 50 (50% inhibition of binding of 3H-pyridostigmine to the antibody): > 500 ng

## C[n+]1cccc(O)c1 [3-Hydroxy-N-methyl-pyridostigmine]
  IC 50 (50% inhibition of binding of 3H-pyridostigmine to the antibody): > 500 ng

## C[n+]1ccccc1/C=N/O [Pralidoxime Chloride]
  IC 50 (50% inhibition of binding of 3H-pyridostigmine to the antibody): > 500 ng

## CNC(=O)Oc1ccc2c(c1)[C@]1(C)CCN(C)[C@@H]1N2C [Physostigmmine]
  IC 50 (50% inhibition of binding of 3H-pyridostigmine to the antibody): > 500 ng
